Reference: ChEMBL document CHEMBL1129846, “Synthesis and antiproliferative activity of 2-O-allyl-1--D-arabinofuranosyl-uracil, -cytosine and -adenine” (Bioorg Med Chem Lett, 1997)

Key:
Assay type in all cases: functional, cell-based
[1] = Compound was evaluated for its antiproliferative activity on human T-lymphocyte CEM cells; details: CCRF-CEM
[2] = Compound was evaluated for its antiproliferative activity on human T-lymphocyte Molt4/C8 cells; details: MOLT-4
L1210 = assay: Tested for its antiproliferative activity on murine leukemia L1210 cells; details: Mus musculus

Row | SMILES | IC50 (L1210) | IC50 [1] | IC50 [2]
1 | C=CCO[C@H]1[C@H](O)[C@@H](CO)O[C@H]1n1cnc2c(N)ncnc21 | 250 µM | 72 µM | 88 µM
2 | C=CCO[C@H]1[C@H](O)[C@@H](CO)O[C@H]1n1ccc(=O)[nH]c1=O | > 500 µM | > 500 µM | > 500 µM
3 | Nc1ncnc2c1ncn2[C@@H]1O[C@H](CO)[C@@H](O)[C@@H]1O [VIDARABINE] | 14.2 µM | 24.8 µM | 11.9 µM

Now from value to compound, other results behind:

Row | IC50 (L1210) | SMILES | IC50 [1] | IC50 [2]
4 | 127 µM | C=CCO[C@H]1[C@H](O)[C@@H](CO)O[C@H]1n1ccc(N)nc1=O | 127 µM | 588 µM
5 | 0.031 µM | Nc1ccn([C@@H]2O[C@H](CO)[C@@H](O)[C@@H]2O)c(=O)n1 [CYTARABINE] | 0.0037 µM | 0.03 µM
6 | > 200 µM | O=c1ccn([C@@H]2O[C@H](CO)[C@@H](O)[C@H]2O)c(=O)[nH]1 [URIDINE] | > 200 µM | > 200 µM
